Legend:
OBP2 = test: Fluorescent-quench ligand-protein-binding assay (OBP2 binding screen); parameters: species or system Apis mellifera
From the text: To identify a honeybee repellent disclosed herein, candidate compounds were screened based upon the fact that 2-heptanone is an established repellent of bees. 2-heptanone is thought to mediate its behavioral response through binding to a specific odorant-binding protein called OBP2. Therefore compounds that bind OBP2 have the potential to act as odor “mimics” of 2-heptanone. By utilizing a fluorescent-quench, ligand-protein-binding assay, 30,000 compounds from the DIVERSET® library (ChemBridge Corp., San Diego, Calif.), a chemical library, were screened and over 150 candidate compounds were isolated that bind OBP2 (Table 1). Such assays are generally known in the art. See, e.g., Briand, et al., Ligand-Binding Properties and Structural Characterization of a Novel Rat Odorant-Binding Protein Variant, Eur. J. Biochem. 267(10): 3079-3089 (2000); Briand, et al., Ligand Binding and Physico-Chemical Properties of ASP2, A Recombinant Odorant-Binding Protein From Honeybee (Apis mellifera L.), Eur. J. Biochem. 268(3): 752-760 (2001); Briand, et al., Characterization of a Chemosensory Protein (ASP3c) from Honeybee (Apis mellifera L.) as a Brood Pheromone Carrier, Eur. J. Biochem. 269(18): 4586-4596 (2002), each of which is hereby incorporated by reference in its entirety.

[1] = test system: Apis mellifera Carniolan foraging worker honeybees; test: Choice test in free-flight box apparatus; type: in vivo; conditions: for Repellence Score: percent food-weight change vs corresponding dishes in preceding test
Experimental: To determine whether living honeybees will choice to move towards a source of a candidate compound, these compounds were assayed using a choice test in a free-flight box apparatus.
All tests were done in a free-flight box apparatus. The apparatus comprises a 244 cm long×46 cm deep×30 cm high clear plastic box including two equally-sized independent testing chambers, each with 10 cm diameter air inlets that admit filtered room air, separated by a smaller central chamber with a screened air outlet to each testing chamber. Air can be pulled through the sealed box via a 10 cm diameter duct from the air outlet using an AQE Fume Fighter 500 fume extractor (BPA Air Quality Solutions, LLC, Charleston, S.C.), which removes the test odors using activated charcoal and HEPA filters. The box is housed in an environmentally controlled room with overhead illumination timed to correspond to the current ambient light cycle including 2 additional sets of lights timed to approximate crepuscular lighting conditions. The bottom of the apparatus was lined with clean absorbent paper marked with a 4×9 grid pattern, forming 12 cm×12 cm squares with marked coordinates.
Apis mellifera Carniolan foraging worker honeybees were obtained from a local apiary (typically 60 bees per shipment). Thirty honeybees were put into each testing chamber and were allowed to acclimate for 24 hours with food and water freely available.
At the beginning of each test day all food was removed from the test chamber, but water was continually available throughout all tests. For each test, approximately 0.3 g of organic, raw orange blossom honey was added to each clean small plastic weigh boat (Cole-Palmer). The honey boats were placed in small plastic culture dishes, which were distributed in the marked squares in the chambers. The positions of the dishes on the grid for a set of trials was chosen to avoid the bees' preferred resting area so that they had to find the food actively, but the same dish positions were maintained for a given set of trials. […] The honey in each boat was weighed on an analytical balance before and after the test, with the screened sample as a control for evaporative loss. The fume extractor was left off during the experimental trails, and was turned on to clear the air after the test dishes were covered and removed from the chamber at the end of each trial.
Based on the observation that bees tend to return to dishes in the same position where they have fed before, each set of trials with each group of bees began with “Pattern Identification” tests to see which dishes lose the most weight, reflecting the most feeding. Once bees were consuming an acceptable amount in 10-15 min, typically in 1-2 trials, we began a set of test compound trials. The test compound was pipetted onto pieces of filter paper placed on the dish bottom below the boat containing a fresh, weighed honey sample so that the test compound was inaccessible to the bees. We used 2 μL of a candidate compound at a concentration of 0.05-0.5%, in Triton X-100 or paraffin oil, on each of four pieces of filter paper per dish. The test-solution dishes were set at the same positions as the one or two dishes favored in the preceding Pattern Identification trial. To eliminate interference from the solvent, the other dishes without the test substance contained the same volume of the appropriate solvent on filter papers as the test solution dishes. The bees were allowed to feed for 10-15 minutes. Bee movements were recorded by a small, wide-angle digital video camcorder (HD Hero 960; GoPro, Halfmoon Bay, Calif.) placed on a tripod in front of the test chamber. The bees were given a brief rest while the honey was weighed and a second test was begun with fresh dishes, except that the test compound-containing dish or dishes were placed at whichever positions were most visited in the preceding test. […] The bees were then rested for 1-3 hours and a subsequent set of trials begun with another Pattern Identification. […]

[2] = test system: Apis mellifera Carniolan foraging worker honeybees; test: Proboscis extension response (PER) assay in bees conditioned to 2-heptanone; type: in vivo; conditions: for 2-heptanone positive bees testing positive to compound: final compound concentration 0.5% (TRITON X-100/water), 4 s exposure, only bees PER-positive to 2-heptanone and negative to controls counted
Experimental: To determine whether a living honeybee can recognize a candidate compound, these compounds were tested using a proboscis extension response (PER) assay using classical conditioning approaches. Proboscis extension response conditioning is a case of appetitive learning, in which bees learn to associate odor stimuli with sucrose reward in the laboratory. In this case, bees were conditioned to produce a PER to 2-heptanone as the conditioned stimulus and a sugar reward as the unconditioned stimulus. These trained bees were then exposed to an odor pulse of a candidate compound to test whether a candidate compound would also produce a PER. If the candidate compound “mimics” 2-heptanone then the honeybee will extend its proboscis.
For conditioning procedures, Apis mellifera Carniolan foraging worker honeybees were obtained from a local apiary (typically 60 bees per shipment). The honeybees were held overnight in insect cages with food and water freely available, in an environmentally controlled room on a light cycle similar to the ambient cycle at the time of the assay.
For conditioning procedures, all tests were done in an odorant delivery apparatus set inside a fume hood. The apparatus comprised a set of open-ended, horizontal, 3 cm diameter by 10 cm long plastic tubes. Each tube was designed where a honeybee could be positioned at the distal end of a tube, with the opening at the other end of the tube located proximal to an inlet of the fume hood. To deliver an odorant, room air was pumped by a diaphragm pump through a particle filter via 0.25 inch plastic tubing at approximately 0.7 m/sec. The air flow passes into the headspace above an odorant (0.5% [v/v]2-heptanone dissolved in odorless light paraffin oil) contained in a 100 mL bottle. The headspace air then passes through another plastic tube to a manifold of 4-way valves, each of which was attached near the proximal end of a plastic tube containing a bee. Each bee was exposed separately for a desired time period to the odorant by opening and closing the appropriate valve. When each valve was closed, the odor was flushed away immediately by the continuous fume hood air stream.
To train a honeybee to respond to a conditioned and unconditioned stimuli, bees were placed, without anesthesia, in individual 1.5 mL micro-centrifuge holding tubes and held overnight without access to food or water. The holding tubes containing the starved bees were placed in racks in groups of eight. One rack at a time was placed behind the odorant delivery apparatus so that each bee's head is centered at the distal end of a horizontal plastic tube. Each bee was exposed to the 2-heptanone odorant alone for four seconds, and then while being fed an 80% sucrose solution for and additional three seconds. The sucrose solution was delivered on a piece of saturated filter paper held in forceps. […] Positive and negative responses were recorded. A positive PER was scored when a bee extended its proboscis before the sucrose appeared. In a typical trial, 48 individual bees were subjected to conditioning. Six rounds of training were done before testing began, and typically a majority of the bees were successfully conditioned by the second or third round of training.
After conditioning, honeybees were tested with the candidate compounds the same day or on the following day or, most commonly, both. When held overnight, bees were fed with sucrose and kept in their holding tubes. When tested the day after training, bees were given one or more rounds of conditioning with 2-heptatone to refresh their memories. Candidate compounds stocks were made at 5% (w/v) in polyoxyethylene octyl phenyl ether (TRITON® X-100), a non-ionic detergent/surfactant, and stored at 4° C. This detergent is similar to substances used as carriers for a variety of commercial pest-control agents, can act as a solvent for both hydrophilic and hydrophobic substances, and is itself nearly odorless. […]

[3] = cited from earlier work
[4] = amount 0.5%, negative = increase in food consumption

Row | Structure (SMILES) | OBP2 binding characteristic of compound (OBP2) | Repellence Score [1, 4] | Repellent or attractant effect in choice test (in words) ([1]; reduction of feeding at dishes most visited in preceding test) | 2-heptanone positive bees testing positive to compound [2] | % Positive in PER ([2]; PER score as repeated in Table 3) | solubility in alcohol or ether ([3]; alcohol or ether) | solubility in water ([3]; water) | Effectiveness at 10-fold lower concentration ([1]; 0.05% compared with 0.5%) | Repellence Score ([1]; amount 0.05%) | Repellence Score ([1]; amount 0.1%)
1 | Cc1cc(C)c2c(N)c(C(=O)c3ccc(Cl)cc3)sc2n1 [compound 8, (3-amino-4,6-dimethylthieno[2,3-b]pyridin-2-yl)(4-chlorophenyl)methanone] | Moderate (Moderate, indicates that 50% or less of the compound bound to OBP2.) | −10.7% | slightly attractive | 14.4% |  |  |  |  |  | 
2 | O=C1OC(c2ccccc2)=NC1=Cc1cccs1 [compound 9, 2-phenyl-4-(2-thienylmethylene)-1,3-oxazol-5(4H)-one] | Moderate (Moderate, indicates that 50% or less of the compound bound to OBP2.) | 43.3% |  | 9.7% |  |  |  |  |  | 
3 | O=C(NNC1=C(C(=O)C(F)(F)F)CCC1)c1ccc(Br)cc1 [compound 36] | Moderate (Moderate, indicates that 50% or less of the compound bound to OBP2.) | 56.3% |  | 24.3% |  |  |  |  |  | 
4 | CC(=O)c1cc(Cl)ccc1OC(=O)c1ccc(C)cc1 [compound 40, 2-acetyl-4-chlorophenyl 4-methylbenzoate] | Moderate (Moderate, indicates that 50% or less of the compound bound to OBP2.) | 54.6% |  | 34.3% | 30.5% |  |  |  |  | 
5 | CCCCCC(C)=O [2-heptanone] |  | 54.6% |  |  |  | soluble | very slightly soluble |  |  | 
6 | O=[N+]([O-])c1ccc(C=Cc2ccc(O)cc2)cc1 [compound 2, 4-[2-(4-nitrophenyl)vinyl]phenol] | Moderate (Moderate, indicates that 50% or less of the compound bound to OBP2.) | 37.6% |  | 31.5% |  |  |  | significantly more effective | 57.7% | 
7 | COc1ccc(CN2CCN(Cc3ccccc3)CC2)c(C)c1C [compound 7, 1-benzyl-4-(4-methoxy-2,3-dimethylbenzyl)piperazine] | Moderate (Moderate, indicates that 50% or less of the compound bound to OBP2.) |  |  | 39.0% |  |  |  |  |  | 62.0%
8 | COc1ccc(C(=O)C=Cc2c(C)[nH]c3ccccc23)cc1 [compound 1, 1-(4-methoxyphenyl)-3-(2-methyl-1H-indol-3-yl)-2-propen-1-one] | Moderate (Moderate, indicates that 50% or less of the compound bound to OBP2.) | 57.8% |  | 26.6% |  |  |  |  |  | 
